In patent US8946383B2, “Obtaining cocoa extracts rich in bioactive peptides with ACE and PEP enzyme inhibitory activity” (Naturex, priority 2008, dated 2015):
Where a SMILES comes first, the peptide text is derived from it. The star is where a group is joined. Cbz = O=C(OCc1ccccc1)*

Test system: CL4176 transgenic strain of C. elegans
Assay: Paralysis assay after induction of Ab peptide expression in C. elegans
Type: in vivo, Caenorhabditis elegans
Conditions: third day after inducing Ab peptide expression at 23° C.; 100 μl of fraction per plate; ZPP 0.1 mM
Experimental: An oxidative stress assay using the CL4176 transgenic strain of C. elegans was carried out, characterized by expressing the human amyloid beta-peptide (Abl-42) after temperature induction.
Prior data in the literature indicate that the formation of amyloid beta-peptide plaques is preceded by oxidative stress (Drake et al, “Oxidative stress precedes fibrillar deposition of Alzheimer's disease amyloid beta-peptide (1-42) in a transgenic Caenorhabditis elegans model” Neurobiol Aging 2003, 24(3):415-20). Therefore, it is interesting to evaluate if the hypothetical reduction of fibrillar deposition of Ab peptides in the neurons produced by the action of a molecule or compound gives rise to greater resistance against oxidative stress treatments. Furthermore, the expression of said peptide in these transgenic animals produces a paralysis that can be evaluated after adding the molecule or compound of interest.
To carry out the experiment, worms of the CL4176 strain having a synchronized age by means of plate cultivation of NG at 16° C. were obtained. The eggs were collected in NG plates which contained 100 μl of each peptide fraction (F11, F12, F14 and F18). […] For the first 3 days after induction, the number of worms paralyzed in each assayed condition was analyzed. […] The plates were incubated at 23° C. and after 5 hours the total number of worms that survived treatment were counted.

## O=C[C@@H]1CCCN1C(=O)[C@@H]1CCCN1C(=O)OCc1ccccc1 [Z-prolyl prolinal] (Cbz-Pro-Pro-aldehyde)
  percentage of non-paralyzed worms: 99.44%
